In ChEMBL document CHEMBL1152560, “Substituted 2-arylbenzothiazoles as kinase inhibitors: hit-to-lead optimization” (Bioorg Med Chem, 2009) one finds residual activity and IC50 data, which are given here for three compounds.

pIC50: −log10 of the molar value.

Assay [1] concerns the target Protein kinase C gamma type (Homo sapiens) (UniProt P05129). As to the kind of experiment: Residual activity of PKCgamma at 10 uM by microplate scintillation counting.
The target in assay [2] is Macrophage colony-stimulating factor 1 receptor (Homo sapiens) (UniProt P07333). As to the kind of experiment: Residual activity of CSF1R at 1 uM by microplate scintillation counting.
For assay [3], the target named is Ephrin type-A receptor 4 (Homo sapiens) (UniProt P54764). Nature of the assay: Residual activity of EPHA4 at 1 uM by microplate scintillation counting.
Assay [4] deals with Serine/threonine-protein kinase PAK 5 (Homo sapiens) (UniProt Q9P286). As to the kind of experiment: Residual activity of PAK7 at 1 uM by microplate scintillation counting.
The target of a further assay is Angiopoietin-1 receptor (Homo sapiens, UniProt Q02763). Nature of the assay: Inhibition of TIE2 by microplate scintillation counting.
For assay [5], the target named is Ephrin type-A receptor 2 (Homo sapiens) (UniProt P29317). As to the kind of experiment: Residual activity of EPHA2 at 0.1 uM by microplate scintillation counting.
Assay [6] deals with Protein kinase C beta type (Homo sapiens) (UniProt P05771). As to the kind of experiment: Residual activity of PKCbeta2 at 1 uM by microplate scintillation counting.
The target in assay [7] is T1, Tyrosine-protein kinase ITK/TSK (Homo sapiens) (UniProt Q08881).
T1 sequence (whole entry): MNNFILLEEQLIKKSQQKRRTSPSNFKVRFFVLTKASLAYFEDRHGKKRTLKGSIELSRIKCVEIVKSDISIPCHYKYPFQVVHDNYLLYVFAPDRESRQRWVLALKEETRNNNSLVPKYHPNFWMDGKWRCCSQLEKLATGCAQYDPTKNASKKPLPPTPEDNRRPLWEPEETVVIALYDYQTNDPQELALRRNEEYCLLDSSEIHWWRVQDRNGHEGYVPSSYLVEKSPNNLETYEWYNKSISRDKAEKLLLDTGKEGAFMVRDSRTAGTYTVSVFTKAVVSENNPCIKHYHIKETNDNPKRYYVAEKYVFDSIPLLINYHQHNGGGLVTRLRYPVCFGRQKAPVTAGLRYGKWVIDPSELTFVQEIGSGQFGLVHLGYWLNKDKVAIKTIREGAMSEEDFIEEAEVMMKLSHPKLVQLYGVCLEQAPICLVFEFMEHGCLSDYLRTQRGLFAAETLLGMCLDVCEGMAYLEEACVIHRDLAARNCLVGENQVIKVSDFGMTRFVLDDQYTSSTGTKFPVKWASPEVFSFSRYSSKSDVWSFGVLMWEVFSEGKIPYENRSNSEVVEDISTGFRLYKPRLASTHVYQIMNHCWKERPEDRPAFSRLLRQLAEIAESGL
As to the kind of experiment: Residual activity of ITK at 0.1 uM by microplate scintillation counting.

Assay [8] deals with Insulin-like growth factor 1 receptor (Homo sapiens) (UniProt P08069). Nature of the assay: Residual activity of IGF1R at 10 uM by microplate scintillation counting.
The target in assay [9] is Serine/threonine-protein kinase PAK 3 (Homo sapiens) (UniProt O75914). Nature of the assay: Residual activity of PAK3 at 1 uM by microplate scintillation counting.
The test system of assay [10] is Tyrosine-protein kinase ABL1 (Homo sapiens), P00519 [T315I]. Nature of the assay: Residual activity of ABL1 T315I mutant at 10 uM by microplate scintillation counting.
Assay [11] has as its target Eukaryotic translation initiation factor 2-alpha kinase 1 (Homo sapiens) (UniProt Q9BQI3). Nature of the assay: Residual activity of HRI at 10 uM by microplate scintillation counting.
Assay [12] addresses Serine/threonine-protein kinase Chk2 (Homo sapiens) (UniProt O96017). Nature of the assay: Residual activity of CHK2 at 1 uM by microplate scintillation counting.
For assay [13], the target named is Dual specificity mitogen-activated protein kinase kinase 1 (Homo sapiens) (UniProt Q02750). As to the kind of experiment: Residual activity of wild type MEK1 at 0.1 uM by microplate scintillation counting.
For assay [14], the target named is Tyrosine-protein kinase Fgr (Homo sapiens) (UniProt P09769). Nature of the assay: Residual activity of FGR at 10 uM by microplate scintillation counting.
Assay [15] deals with T2, Serine/threonine-protein kinase NLK (Homo sapiens) (UniProt Q9UBE8).
T2 sequence (whole entry): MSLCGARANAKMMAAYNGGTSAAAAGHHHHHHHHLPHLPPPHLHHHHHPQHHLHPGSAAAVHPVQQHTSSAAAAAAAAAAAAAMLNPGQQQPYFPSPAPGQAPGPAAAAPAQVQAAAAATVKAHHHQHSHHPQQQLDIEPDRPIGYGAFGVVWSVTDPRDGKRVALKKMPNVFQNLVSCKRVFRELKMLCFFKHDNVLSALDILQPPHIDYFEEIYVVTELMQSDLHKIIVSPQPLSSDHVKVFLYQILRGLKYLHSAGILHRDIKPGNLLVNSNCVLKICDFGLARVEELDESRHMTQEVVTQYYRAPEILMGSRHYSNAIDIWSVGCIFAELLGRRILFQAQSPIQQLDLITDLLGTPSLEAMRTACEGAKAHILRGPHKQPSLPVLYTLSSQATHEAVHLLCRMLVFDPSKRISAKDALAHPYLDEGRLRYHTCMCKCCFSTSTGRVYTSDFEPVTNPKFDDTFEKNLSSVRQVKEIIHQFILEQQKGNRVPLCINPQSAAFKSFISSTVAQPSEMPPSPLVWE
Nature of the assay: Residual activity of NLK at 10 uM by microplate scintillation counting.

Assay [16] addresses T3, cAMP-dependent protein kinase catalytic subunit PRKX (Homo sapiens) (UniProt P51817).
T3 sequence (whole entry): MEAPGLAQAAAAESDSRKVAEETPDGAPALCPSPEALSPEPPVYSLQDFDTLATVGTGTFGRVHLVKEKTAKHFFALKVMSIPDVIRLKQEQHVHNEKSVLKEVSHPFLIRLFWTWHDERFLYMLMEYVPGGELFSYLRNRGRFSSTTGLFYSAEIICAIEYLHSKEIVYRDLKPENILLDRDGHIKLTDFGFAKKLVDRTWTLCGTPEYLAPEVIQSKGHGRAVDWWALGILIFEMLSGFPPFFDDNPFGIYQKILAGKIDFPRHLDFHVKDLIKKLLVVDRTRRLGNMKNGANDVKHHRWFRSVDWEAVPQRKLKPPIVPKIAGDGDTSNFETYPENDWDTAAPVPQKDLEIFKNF
As to the kind of experiment: Residual activity of PRKX at 0.1 uM by microplate scintillation counting.

In assay [17] the target is Serine/threonine-protein kinase pim-1 (Homo sapiens) (UniProt P11309). Nature of the assay: Residual activity of PIM1 at 10 uM by microplate scintillation counting.
The target of assay [18] is Receptor tyrosine-protein kinase erbB-2 (Homo sapiens, UniProt P04626). Nature of the assay: Residual activity of ERBB2 at 1 uM by microplate scintillation counting.
Receptor tyrosine-protein kinase erbB-2, sequence (P04626 whole entry): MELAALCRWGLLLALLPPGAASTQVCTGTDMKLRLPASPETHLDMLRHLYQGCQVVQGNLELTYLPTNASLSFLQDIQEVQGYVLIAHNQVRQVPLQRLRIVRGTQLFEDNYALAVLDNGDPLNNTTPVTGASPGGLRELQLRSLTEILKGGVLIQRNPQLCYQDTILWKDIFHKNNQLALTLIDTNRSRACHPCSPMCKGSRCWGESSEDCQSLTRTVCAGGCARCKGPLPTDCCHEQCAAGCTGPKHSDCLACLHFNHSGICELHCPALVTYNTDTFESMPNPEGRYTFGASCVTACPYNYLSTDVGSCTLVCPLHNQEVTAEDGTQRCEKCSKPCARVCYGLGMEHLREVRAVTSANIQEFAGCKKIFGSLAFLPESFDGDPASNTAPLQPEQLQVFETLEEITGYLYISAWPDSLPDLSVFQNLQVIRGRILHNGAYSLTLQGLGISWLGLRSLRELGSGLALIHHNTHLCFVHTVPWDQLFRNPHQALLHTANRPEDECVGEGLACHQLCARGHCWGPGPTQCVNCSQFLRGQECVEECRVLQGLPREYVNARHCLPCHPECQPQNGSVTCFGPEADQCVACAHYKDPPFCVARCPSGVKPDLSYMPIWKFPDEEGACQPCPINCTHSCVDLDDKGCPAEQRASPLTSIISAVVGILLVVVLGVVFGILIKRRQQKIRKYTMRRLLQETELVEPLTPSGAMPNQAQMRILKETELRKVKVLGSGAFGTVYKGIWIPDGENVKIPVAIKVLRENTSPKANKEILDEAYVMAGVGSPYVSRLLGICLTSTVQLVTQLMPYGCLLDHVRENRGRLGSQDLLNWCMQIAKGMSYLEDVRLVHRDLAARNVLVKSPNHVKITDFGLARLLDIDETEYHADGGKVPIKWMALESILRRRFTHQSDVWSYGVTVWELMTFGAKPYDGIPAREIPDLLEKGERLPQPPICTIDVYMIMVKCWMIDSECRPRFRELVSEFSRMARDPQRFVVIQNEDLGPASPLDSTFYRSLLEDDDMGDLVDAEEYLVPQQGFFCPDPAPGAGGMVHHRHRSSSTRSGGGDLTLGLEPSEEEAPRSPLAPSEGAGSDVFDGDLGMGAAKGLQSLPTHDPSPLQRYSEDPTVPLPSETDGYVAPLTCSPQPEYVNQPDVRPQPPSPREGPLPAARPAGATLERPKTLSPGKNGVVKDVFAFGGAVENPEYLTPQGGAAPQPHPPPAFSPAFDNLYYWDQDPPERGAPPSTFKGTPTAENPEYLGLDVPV

Macrophage colony-stimulating factor 1 receptor (Homo sapiens), sequence (P07333 whole entry): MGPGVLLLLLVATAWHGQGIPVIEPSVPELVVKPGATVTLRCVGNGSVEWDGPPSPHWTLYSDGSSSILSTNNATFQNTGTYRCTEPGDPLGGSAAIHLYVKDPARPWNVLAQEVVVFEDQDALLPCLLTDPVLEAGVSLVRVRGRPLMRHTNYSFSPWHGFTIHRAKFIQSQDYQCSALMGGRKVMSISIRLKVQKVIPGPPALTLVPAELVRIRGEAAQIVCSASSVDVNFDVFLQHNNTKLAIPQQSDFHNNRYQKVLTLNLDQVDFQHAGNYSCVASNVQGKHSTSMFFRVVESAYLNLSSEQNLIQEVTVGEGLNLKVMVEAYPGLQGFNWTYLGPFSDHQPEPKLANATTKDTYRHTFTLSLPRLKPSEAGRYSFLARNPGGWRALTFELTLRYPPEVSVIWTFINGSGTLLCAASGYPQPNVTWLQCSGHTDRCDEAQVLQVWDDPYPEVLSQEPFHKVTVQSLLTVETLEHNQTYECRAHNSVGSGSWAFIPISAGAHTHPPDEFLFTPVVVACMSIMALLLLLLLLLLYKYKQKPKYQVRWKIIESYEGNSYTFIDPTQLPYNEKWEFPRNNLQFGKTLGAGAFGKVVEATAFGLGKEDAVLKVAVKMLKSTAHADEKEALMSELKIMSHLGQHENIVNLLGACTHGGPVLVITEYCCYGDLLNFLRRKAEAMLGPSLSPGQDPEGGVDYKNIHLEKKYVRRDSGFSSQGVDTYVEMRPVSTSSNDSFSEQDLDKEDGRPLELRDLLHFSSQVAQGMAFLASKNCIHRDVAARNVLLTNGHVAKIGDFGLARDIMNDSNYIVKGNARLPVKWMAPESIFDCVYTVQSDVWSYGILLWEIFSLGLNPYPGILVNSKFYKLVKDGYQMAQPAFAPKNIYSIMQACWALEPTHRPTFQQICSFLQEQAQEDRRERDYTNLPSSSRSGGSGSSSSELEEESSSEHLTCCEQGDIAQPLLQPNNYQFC
Protein kinase C beta type (Homo sapiens), sequence (P05771 2-671 limits assumed): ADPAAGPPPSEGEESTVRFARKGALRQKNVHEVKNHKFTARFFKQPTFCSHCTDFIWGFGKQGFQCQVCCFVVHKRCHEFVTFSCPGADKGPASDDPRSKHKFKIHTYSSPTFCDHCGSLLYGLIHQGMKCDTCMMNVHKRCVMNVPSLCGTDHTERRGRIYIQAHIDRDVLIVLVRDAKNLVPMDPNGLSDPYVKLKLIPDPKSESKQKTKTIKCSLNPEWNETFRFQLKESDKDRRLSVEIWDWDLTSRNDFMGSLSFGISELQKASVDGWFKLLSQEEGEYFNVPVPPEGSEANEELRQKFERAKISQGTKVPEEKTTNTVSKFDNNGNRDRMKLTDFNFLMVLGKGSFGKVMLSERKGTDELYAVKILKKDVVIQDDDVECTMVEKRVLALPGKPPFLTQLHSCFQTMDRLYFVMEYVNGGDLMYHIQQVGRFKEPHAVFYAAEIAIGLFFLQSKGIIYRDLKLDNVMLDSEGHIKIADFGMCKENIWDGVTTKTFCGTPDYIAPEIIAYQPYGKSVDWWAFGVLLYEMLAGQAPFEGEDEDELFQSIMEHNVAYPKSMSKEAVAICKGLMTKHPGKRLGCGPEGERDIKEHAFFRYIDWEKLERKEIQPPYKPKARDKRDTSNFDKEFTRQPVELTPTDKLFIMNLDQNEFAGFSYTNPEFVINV
Angiopoietin-1 receptor, sequence (Q02763 whole entry): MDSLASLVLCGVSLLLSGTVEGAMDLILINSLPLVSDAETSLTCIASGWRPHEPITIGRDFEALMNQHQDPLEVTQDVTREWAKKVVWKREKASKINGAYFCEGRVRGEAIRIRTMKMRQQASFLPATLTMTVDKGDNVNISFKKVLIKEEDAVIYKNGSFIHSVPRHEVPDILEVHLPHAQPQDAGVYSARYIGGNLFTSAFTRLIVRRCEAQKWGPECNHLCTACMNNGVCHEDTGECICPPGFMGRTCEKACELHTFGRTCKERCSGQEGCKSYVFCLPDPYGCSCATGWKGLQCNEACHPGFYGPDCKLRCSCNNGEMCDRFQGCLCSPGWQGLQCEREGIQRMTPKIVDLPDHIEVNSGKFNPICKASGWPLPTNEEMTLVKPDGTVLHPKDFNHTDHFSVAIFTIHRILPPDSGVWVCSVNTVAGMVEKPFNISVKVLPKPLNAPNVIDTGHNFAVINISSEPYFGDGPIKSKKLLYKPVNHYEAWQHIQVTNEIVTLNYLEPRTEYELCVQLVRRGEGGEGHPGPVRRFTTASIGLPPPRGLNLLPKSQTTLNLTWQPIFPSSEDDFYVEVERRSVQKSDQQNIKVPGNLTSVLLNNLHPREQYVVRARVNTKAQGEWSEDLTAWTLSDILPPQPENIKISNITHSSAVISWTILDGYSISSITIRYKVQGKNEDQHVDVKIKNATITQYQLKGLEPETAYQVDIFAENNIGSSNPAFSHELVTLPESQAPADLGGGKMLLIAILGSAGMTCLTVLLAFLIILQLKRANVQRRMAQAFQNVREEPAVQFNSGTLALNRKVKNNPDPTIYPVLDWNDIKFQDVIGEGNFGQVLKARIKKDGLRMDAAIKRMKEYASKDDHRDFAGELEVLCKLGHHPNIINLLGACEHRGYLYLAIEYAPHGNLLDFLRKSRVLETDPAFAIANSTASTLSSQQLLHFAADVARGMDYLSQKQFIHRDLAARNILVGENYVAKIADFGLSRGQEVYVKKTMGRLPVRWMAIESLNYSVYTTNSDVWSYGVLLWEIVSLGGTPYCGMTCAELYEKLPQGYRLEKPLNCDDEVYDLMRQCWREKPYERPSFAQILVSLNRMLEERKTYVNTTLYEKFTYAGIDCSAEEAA
Dual specificity mitogen-activated protein kinase kinase 1 (Homo sapiens), sequence (Q02750 whole entry): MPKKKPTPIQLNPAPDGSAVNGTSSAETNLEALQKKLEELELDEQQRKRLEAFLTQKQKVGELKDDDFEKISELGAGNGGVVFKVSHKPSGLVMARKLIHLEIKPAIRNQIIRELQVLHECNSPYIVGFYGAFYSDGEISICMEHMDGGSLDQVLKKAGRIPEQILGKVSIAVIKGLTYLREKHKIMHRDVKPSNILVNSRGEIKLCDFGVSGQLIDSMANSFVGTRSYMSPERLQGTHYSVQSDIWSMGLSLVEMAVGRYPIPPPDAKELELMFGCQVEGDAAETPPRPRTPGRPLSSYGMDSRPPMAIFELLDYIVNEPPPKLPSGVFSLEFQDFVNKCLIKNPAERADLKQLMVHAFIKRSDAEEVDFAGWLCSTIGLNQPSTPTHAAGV
Serine/threonine-protein kinase PAK 3 (Homo sapiens), sequence (O75914 whole entry, looked up): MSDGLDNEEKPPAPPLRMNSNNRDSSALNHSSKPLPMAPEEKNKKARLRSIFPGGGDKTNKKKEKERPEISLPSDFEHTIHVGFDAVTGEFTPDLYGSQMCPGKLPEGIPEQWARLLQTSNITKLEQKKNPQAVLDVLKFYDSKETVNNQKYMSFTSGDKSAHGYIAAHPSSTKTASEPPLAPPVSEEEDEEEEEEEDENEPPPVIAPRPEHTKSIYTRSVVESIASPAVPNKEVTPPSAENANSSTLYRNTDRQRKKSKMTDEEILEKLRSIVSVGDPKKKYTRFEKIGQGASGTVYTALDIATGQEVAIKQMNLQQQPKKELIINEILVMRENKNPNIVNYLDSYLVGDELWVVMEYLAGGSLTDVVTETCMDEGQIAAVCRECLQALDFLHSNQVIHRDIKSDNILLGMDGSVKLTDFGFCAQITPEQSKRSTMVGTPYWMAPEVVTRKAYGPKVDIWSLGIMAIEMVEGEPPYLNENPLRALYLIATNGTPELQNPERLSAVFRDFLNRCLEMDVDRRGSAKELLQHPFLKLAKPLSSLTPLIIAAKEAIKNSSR

For orientation: pIC50 means −log10 of the IC50, conventionally taken in molar units. Take `COc1cc2c(Oc3ccc(-c4nc5ccccc5s4)cc3F)ncnc2cc1OCCCN1CCN(C)CC1`: the residual activity in assay [1] stood at 58%; in [2] it was 105%; in [3], 92%; in assay [4] it was 83%; in assay [5], 94%; in [6], 132%. Also, the residual activity in [7] was 107%; in assay [8] it was 46%; in assay [9], 95%; in assay [10], 31%; in assay [11], 57%; in assay [12], 51%. The residual activity in assay [13] worked out at 79%; in [14], 24%; in assay [15], 114%; in [16], 93%; in assay [17], 97%; in assay [18] it was 99%. This compound also gave a pIC50 on Angiopoietin-1 receptor of 7.06.

Turning to `COc1cc2c(Oc3ccc(-c4nc5ccccc5s4)cc3)ncnc2cc1OCCCN1CCN(C)CC1`, the residual activity in assay [1] came to 80%; in assay [2], 118%; in assay [3] it was 102%; in assay [4], 77%; in [5], 99%; in assay [6], 104%. For the same compound, the residual activity in assay [7] is 99%; in [8], 100%; in assay [9], 85%; in [10], 44%; in [11] it was 127%; in assay [12], 54%. Moreover, the residual activity in assay [13] stood at 87%; in assay [14], 82%; in [15], 113%; in [16], 90%; in assay [17], 124%; in assay [18], 98%. Further, the pIC50 against Angiopoietin-1 receptor is 7.36.

Turning to `COc1cc2c(Oc3ccc(-c4nc5ccccc5s4)cc3)ncnc2cc1OCCCN1CCCC1`, the residual activity worked out at 33% in [1]; 112% in assay [2]; 94% in assay [3]; 83% in assay [4]; 76% in [5]; 111% in assay [6]. Also, the residual activity in assay [7] worked out at 98%; in assay [8] it was 98%; in [9], 101%; in [10], 43%; in assay [11], 112%; in [12] it was 75%. Further, the residual activity in assay [13] stood at 101%; in [14], 90%; in assay [15] it was 90%; in [16], 86%; in assay [17], 74%; in assay [18], 128%. Further, the pIC50 at Angiopoietin-1 receptor was 7.14.
